Reference: patent US5480906A, “Stereochemical Wortmannin derivatives” (priority 1994, dated 1996)

system: purified bovine brain PI 3-kinase; assay: Assay of purified PI-3 kinase activity (32P incorporation into phosphatidylinositol, TLC/scintillation); type: biochemical; conditions: at 10 ng/ml
Method: In another, preferred, method, PI 3-kinase was prepared from bovine brain. Two bovine brains (wet weight about 900 g) were obtained from a local slaughterhouse within minutes of slaughter, packed on ice, and homogenized within one hour. Brains were trimmed of excess fat and blood vessels and then homogenized using a Tekmar Tissuemizer (Cincinnati, Ohio) at 4° C. in 20 mM of Tris(pH 8.3) containing 250 mM of sucrose, 6 mM of β-mercaptoethanol, 1 μg/ml of leupeptin, 1 μg/ml of pepstatin A, 0.4 mM of PMSF, and 1 mM of MgCl2.
Following centrifugation for 60 minutes at 10,000 x g, the pH of the supernatant (about 1200 mL) was lowered to 5.75 using dropwise addition of 1M acetic acid at 4° C. After stirring for an additional 15 minutes at 4° C., the solution was centrifuged for 60 minutes at 13,500 x g. The supernatant was discarded. Pellets were resuspended in Buffer A (20 mM of Tris, pH 8.3, containing 6 mM of β-mercaptoethanol, 0.1 mM of ethylene glycol-bis(β-aminoethyl ether) N,N,N',N'-tetraacetic acid (EGTA), 1 μg/mL of leupeptin, 1 μg/mL of pepstatin A, and 1 mM of MgCl2), and loaded onto a Fast Flow Q Sepharose column (300 ml) at a flow rate of 5 mL/min at 4° C. After loading, the column was washed with 3 volumes of Buffer A containing 0.1M of KCl and the kinase was then eluted with a linear gradient of Buffer A/0.1M KCl to Buffer A/0.6M KCl at 3 mL/min over 7 volumes.
Fractions were assayed for PI 3-kinase activity using 10 μL of the fraction and phosphatidylinositol as substrate as described below. PI 4-kinase eluted in the breakthrough; PI 3-kinase eluted at approximately 0.3M of KCl. The PI 3-kinase pool was subjected to a 40% ammonium sulfate precipitation. Following centrifugation (60 minutes at 13,500 x g), pellets were resuspended in Buffer B (10 mM of potassium phosphate, pH 7.4, containing 6 mM of β-mercaptoethanol, 1 μg/mL of leupeptin, 1 μg/mL of pepstatin A, and 1 mM of MgCl2), and loaded onto a 50 mL hydroxylapatite column (Calbiochem, Inc., La Jolla, Calif.) at 2.5 mL/minute. The column was washed with 150 mL Buffer B until the A280 baseline reached zero, and the kinase was then eluted with a linear gradient of 10-320 mM of KH2 PO4 at 1 mL/minute over 450 minutes.
Active fractions were pooled and then loaded at 3 mL/minute onto a MonoS column (8 ml) (Pharmacia, Inc., Piscataway, N.J.) equilibrated in Buffer C (50 mM of MES, pH 6.2, containing 6 mM of β-mercaptoethanol, 0.1 mM of EGTA, 1 μg/mL of leupeptin, 1 μg/mL of pepstatin A, and 1 mM of MgCl2). PI 3-kinase was eluted with a linear gradient of 0-0.4M KCl in Buffer C over 120 minutes. In assaying fractions, two pools of PI 3-kinase activity were routinely found. The bulk of the activity was found in the flow-through, while about 20% of the activity was eluted in the gradient. Although the material in the gradient had considerable PI 4-kinase activity, essentially no PI 4-kinase activity was associated with the PI 3-kinase eluted in the flow-through. Therefore, the MonoS flow-through was concentrated by tangential flow filtration on a Mini-Ultrasette Omega 50 K membrane (Filtron, Inc., Northborough, Mass.) and diluted in Buffer C to lower the conductivity. The material was then reloaded onto the MonoS column using the above conditions. The PI 3-kinase bound to the column during the wash and was eluted in the gradient. Two pools of phosphatidylinositol kinase activity were obtained in the gradient; each was assayed for PI 3-kinase and PI 4-kinase activity.
Pool I from the MonoS column was diluted with Buffer A and chromatographed on MonoQ (1 ml) and eluted with a gradient of 0-0.4M KCl in Buffer A. The final pool was assayed for PI 3-kinase and PI 4-kinase activity.
PI 3-kinase activity was measured as previously described by Matter, W. F., et al., Biochemical and Biophysical Research Communications, 186: 624-631 (1992). […]

SMILES	inhibition vs. PI-3-kinase
COC[C@H]1OC(=O)c2coc3c2[C@@]1(C)C1=C(C3=O)[C@@H]2CCC(=O)[C@@]2(C)C[C@H]1O [f, 11-desacetyl wortmannin]	50%

same assay, conditions: purified bovine brain PI 3-kinase, 10 min preincubation, 20 μM ATP, 3% DMSO

SMILES	IC50 for inhibition of PI-3-kinase
CCN(C=C1C(=O)O[C@H](COC)[C@@]2(C)C1=C(O)C(=O)C1=C2[C@H](O)C[C@]2(C)C(=O)CC[C@@H]12)CC [b]	> 10 ng/mL
COC[C@H]1OC(=O)c2coc3c2[C@@]1(C)C1=C(C3=O)[C@@H]2CCC(=O)[C@@]2(C)CC1=O [c, 11-dehydro Wortmannin]	1.6 ng/mL
COC[C@H]1OC(=O)c2coc3c2[C@@]1(C)C1=C(C3=O)[C@@H]2CCC(O)[C@@]2(C)C[C@H]1O (stereo partly shown) [d, 11,17-desacetyl-dihydro Wortmannin]	> 10 ng/mL
CCC(=O)O[C@@H]1C[C@]2(C)[C@@H](O)CC[C@H]2C2=C1[C@]1(C)c3c(coc3C2=O)C(=O)O[C@@H]1COC [e, 11-propionyl-17-hydroxy-desacetyl-dihydro-Wortmannin]	0.38 ng/mL
COC[C@H]1OC(=O)c2coc3c2[C@@]1(C)C1=C(C3=O)[C@@H]2CCC(=O)[C@@]2(C)C[C@H]1O [f, 11-desacetyl wortmannin]	10 ng/mL
CCC(=O)O[C@@H]1C[C@]2(C)C(=O)CC[C@H]2C2=C1[C@]1(C)c3c(coc3C2=O)C(=O)O[C@@H]1COC [g, 11-propionyl-desacetyl-Wortmannin]	0.6 ng/mL
CCCC(=O)O[C@@H]1C[C@]2(C)C(=O)CC[C@H]2C2=C1[C@]1(C)c3c(coc3C2=O)C(=O)O[C@@H]1COC [h, 11-butyryl-desacetyl-Wortmannin]	0.4 ng/mL
CCCCC(=O)O[C@@H]1C[C@]2(C)C(=O)CC[C@H]2C2=C1[C@]1(C)c3c(coc3C2=O)C(=O)O[C@@H]1COC [i, 11-valeryl-desacetyl-Wortmannin]	1.2 ng/mL
COC[C@H]1OC(=O)c2coc3c2[C@@]1(C)C1=C(C3=O)[C@@H]2CCC(=O)[C@@]2(C)C[C@H]1OC(=O)CC(C)C [iA, 11-isovaleryl-desacetyl-Wortmannin]	1.16 ng/mL
CCC(=O)O[C@@H]1C[C@]2(C)[C@@H](OC(C)=O)CC[C@H]2C2=C1[C@]1(C)c3c(coc3C2=O)C(=O)O[C@@H]1COC [j, 11-propionyl-17-acetyl-desacetyl-dihydro-Wortmannin]	56.5 ng/mL
COC[C@H]1OC(=O)c2coc3c2[C@@]1(C)C1=C(C3=O)[C@@H]2CCC(=O)[C@@]2(C)C[C@H]1OC(=O)CCN(C)C [k, 11-dimethylaminopropionyl-desacetyl-Wortmannin]	8.6 ng/mL
COC[C@H]1OC(=O)c2coc3c2[C@@]1(C)C1=C(C3=O)[C@@H]2CCC(=O)[C@@]2(C)C[C@H]1OC(=O)CCl [l, 11-chloroacetyldesacetyl-Wortmannin]	1.3 ng/mL
C=CC(=O)O[C@@H]1C[C@]2(C)C(=O)CC[C@H]2C2=C1[C@]1(C)c3c(coc3C2=O)C(=O)O[C@@H]1COC [m, 11-acrylyl-desacetyl-wortmannin]	0.95 ng/mL
COC[C@H]1OC(=O)c2coc3c2[C@@]1(C)C1=C(C3=O)[C@@H]2CCC(=O)[C@@]2(C)C[C@H]1OC(=O)Cc1ccccc1 [n, 11-phenylacetyl-desacetyl-Wortmannin]	1.53 ng/mL

system: laboratory animals; assay: not given; conditions: even in low dosages, pure form; cited from earlier work

SMILES	toxicity to living creatures (lethality)
COC[C@H]1OC(=O)c2coc3c2[C@@]1(C)C1=C(C3=O)[C@@H]2CCC(=O)[C@@]2(C)C[C@H]1OC(C)=O [wortmannin, Wortmannin]	often lethal
